The target of one experiment is Prothrombin (Homo sapiens, UniProt P00734). Description: Binding affinity for human thrombin.
For a further experiment, the target named is Coagulation factor X (Homo sapiens, UniProt P00742). Kind of experiment: Inhibition of Coagulation factor X.
Chain of Coagulation factor X (P00742 41-179 limits assumed): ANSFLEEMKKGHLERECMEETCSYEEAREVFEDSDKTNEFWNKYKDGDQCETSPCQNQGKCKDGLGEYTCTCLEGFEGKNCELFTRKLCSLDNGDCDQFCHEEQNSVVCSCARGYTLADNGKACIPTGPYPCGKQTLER
Chain of Coagulation factor X (P00742 235-488 limits assumed): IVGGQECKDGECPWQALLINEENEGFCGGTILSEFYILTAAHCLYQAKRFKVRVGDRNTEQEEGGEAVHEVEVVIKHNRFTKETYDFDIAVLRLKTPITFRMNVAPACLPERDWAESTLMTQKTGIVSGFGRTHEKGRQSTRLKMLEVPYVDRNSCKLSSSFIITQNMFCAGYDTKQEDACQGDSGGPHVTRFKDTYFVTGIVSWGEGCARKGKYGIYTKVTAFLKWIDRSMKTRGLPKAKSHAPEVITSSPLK

The term Ki denotes the equilibrium dissociation constant of an inhibitor or competing ligand from its target. Read a low Ki as higher affinity. As for `CN(CC(=O)N[C@@H](CCCCN)C(=O)C(=O)Nc1ccc(Oc2cccc(N)c2)cc1)C(=O)c1ccccc1Sc1ccccc1C#N`, the Ki came out at 59 nM at Prothrombin and 120 nM at Coagulation factor X.
Taken in the same sequence, the figures for `CN(CC(=O)N[C@@H](CCCCN)C(=O)C(=O)Nc1ccc(Oc2ccc(N)cc2)cc1)C(=O)c1ccccc1Sc1ccccc1C#N` were 68 nM and 120 nM.
As to `CN(CC(=O)N[C@@H](CCCCN)B(O)O)C(=O)c1ccccc1S(=O)(=O)c1ccccc1`, the Ki is 97 nM on Prothrombin and 5800 nM at Coagulation factor X.
Regarding `CN(CC(=O)N[C@@H](CCCCN)C(=O)C(=O)Nc1ccccc1)C(=O)c1ccccc1Sc1ccccc1C#N`, the Ki on Prothrombin was 60 nM; at Coagulation factor X, 54 nM.
For `CN(CC(=O)N[C@@H](CCCCN)C(=O)C(=O)Nc1ccc(Oc2cccnc2)cc1)C(=O)c1ccccc1Sc1ccccc1C#N`, the Ki at Prothrombin turned out to be 50 nM; on Coagulation factor X it was 60 nM.
`CN(CC(=O)N[C@@H](CCCCN)C(=O)C(=O)NCc1ccccn1)C(=O)c1ccccc1Sc1ccccc1C#N`: the Ki turned out to be 7400 nM at Prothrombin and 360 nM on Coagulation factor X.
Turning to `CN(CC(=O)N[C@@H](CCCCN)C(=O)C(=O)NCCN1CCOCC1)C(=O)c1ccccc1Sc1ccccc1C#N`, the values for the Ki on Prothrombin and on Coagulation factor X were 8700 nM and 200 nM, respectively.
Take `CN(CC(=O)N[C@@H](CCCCN)B(O)O)C(=O)c1ccccc1Sc1ccccc1C#N`: the Ki was determined as 8.8 nM at Prothrombin and 1.1 nM on Coagulation factor X.
Taken in the same sequence, the figures for `CN(CC(=O)N[C@@H](CCCCN)B(O)O)C(=O)c1ccccc1Sc1ccccc1` were 1.6 nM and 17 nM.
For the molecule `CN(CC(=O)N[C@@H](CCCCN)B(O)O)C(=O)c1ccccc1Cc1ccccc1`, the Ki on Prothrombin stood at 4.9 nM; on Coagulation factor X it was 100 nM.
In the case of `CNC(=O)C(=O)[C@H](CCCCN)NC(=O)CN(C)C(=O)c1ccccc1Sc1ccccc1C#N`, the Ki worked out at 570 nM at Prothrombin and 110 nM at Coagulation factor X.
Take `CN(CC(=O)N[C@@H](CCCCN)C(=O)C(=O)Nc1cccc(N)c1)C(=O)c1ccccc1Sc1ccccc1C#N`: the Ki on Prothrombin and at Coagulation factor X was 120 nM each time.

The record behind these values is ChEMBL document CHEMBL1132908, “Synthesis and activity studies of conformationally restricted alpha-ketoamide factor Xa inhibitors” (Bioorg Med Chem Lett, 2000).
